From ChEMBL document CHEMBL3885881, “DrugMatrix”

Organism: Rattus norvegicus
Test: DrugMatrix - Regimen: Daily Repeat
Type: toxicity, organism-based, Sprague-Dawley
Parameters: regimen Daily Repeat, gender Male, age 6-8 weeks
Settings: in vivo, sc, route subcutaneous, […]; for ABSOLUTE MONOCYTE / ABSOLUTE SEGMENTED NEUTROPHIL / BASOPHIL / EOSINOPHIL / ERYTHROCYTE COUNT / HEMATOCRIT / HEMOGLOBIN / LEUKOCYTE COUNT / LYMPHOCYTE / MEAN CORPUSCULAR HEMOGLOBIN / MEAN CORPUSCULAR HEMOGLOBIN CONCENTRATION / MONOCYTE / NEUTROPHIL / NUCLEATED RED BLOOD CELLS / PLATELET COUNT / ABSOLUTE BASOPHIL / ABSOLUTE EOSINOPHIL / ABSOLUTE LYMPHOCYTE: tissue Blood
[1] = 10 mg/kg, 120 h, dose level Low, time 5 day
[2] = 10 mg/kg, 120 h, tissue Plasma, dose level Low, time 5 day
[3] = 100 mg/kg, 72 h, dose level High, time 3 day
[4] = 100 mg/kg, 72 h, tissue Plasma, dose level High, time 3 day
[5] = 100 mg/kg, 120 h, dose level High, time 5 day
[6] = 100 mg/kg, 120 h, tissue Plasma, dose level High, time 5 day

## COBALT(II) ACETYLACETONATE
[1]
  ABSOLUTE MONOCYTE: 35.33 CELLS/uL
  ABSOLUTE SEGMENTED NEUTROPHIL: 1425 CELLS/uL
  BASOPHIL: 0%
  EOSINOPHIL: 1%
  ERYTHROCYTE COUNT: 5.83 x10E6/uL
  HEMATOCRIT: 36.63%
  HEMOGLOBIN: 13.67 G/DL
  LEUKOCYTE COUNT: 11.87 x10E3/uL
  LYMPHOCYTE: 86.67%
  MEAN CORPUSCULAR HEMOGLOBIN: 23.47 pg
  MEAN CORPUSCULAR HEMOGLOBIN CONCENTRATION: 37.3 G/DL
  MONOCYTE: 0.33%
  NEUTROPHIL: 12%
  NUCLEATED RED BLOOD CELLS: 0 /100WBC
  PLATELET COUNT: 1357.67 x10E3/uL
[2]
  ALANINE AMINOTRANSFERASE: 36.67 u/L
  ALBUMIN: 4.6 G/DL
  ALKALINE PHOSPHATASE: 390 u/L
  ASPARTATE AMINOTRANSFERASE: 87 u/L
  BLOOD UREA NITROGEN: 22 mg/dL
  CARBON DIOXIDE: 21.67 mmol/L
  CHOLESTEROL: 77 mg/dL
  CREATINE PHOSPHOKINASE: 460.67 u/L
  CREATININE: 0.24 mg/dL
  GLUCOSE: 176.67 mg/dL
  LACTATE DEHYDROGENASE: 122.67 u/L
  PHOSPHORUS: 13.67 mg/dL
  POTASSIUM: 6.74 MEQ/L
  TOTAL BILIRUBIN: 0.2 mg/dL
  TOTAL PROTEIN: 6.7 G/DL
  URIC ACID: 2.8 mg/dL
[3]
  ABSOLUTE BASOPHIL: 0 CELLS/uL
  ABSOLUTE EOSINOPHIL: 73 CELLS/uL
  ABSOLUTE LYMPHOCYTE: 8659.67 CELLS/uL
  ABSOLUTE MONOCYTE: 133.33 CELLS/uL
  ABSOLUTE SEGMENTED NEUTROPHIL: 2500.67 CELLS/uL
  BASOPHIL: 0%
  EOSINOPHIL: 0.67%
  ERYTHROCYTE COUNT: 5.76 x10E6/uL
  HEMOGLOBIN: 13.3 G/DL
  LEUKOCYTE COUNT: 11.37 x10E3/uL
  LYMPHOCYTE: 75.67%
  MEAN CORPUSCULAR HEMOGLOBIN: 23.1 pg
  MEAN CORPUSCULAR HEMOGLOBIN CONCENTRATION: 37.2 G/DL
  MONOCYTE: 1%
  NEUTROPHIL: 22.67%
  NUCLEATED RED BLOOD CELLS: 0 /100WBC
  PLATELET COUNT: 1207 x10E3/uL
[4]
  ALANINE AMINOTRANSFERASE: 57.33 u/L
  ALKALINE PHOSPHATASE: 376.67 u/L
  ASPARTATE AMINOTRANSFERASE: 106 u/L
  BLOOD UREA NITROGEN: 17.67 mg/dL
  CARBON DIOXIDE: 26.33 mmol/L
  CHLORIDE: 109 MEQ/L
  CHOLESTEROL: 52.33 mg/dL
  CREATINE PHOSPHOKINASE: 315 u/L
  CREATININE: 0.2 mg/dL
  LACTATE DEHYDROGENASE: 200 u/L
  LIPASE: 9 u/L
  PHOSPHORUS: 10.3 mg/dL
  POTASSIUM: 5.87 MEQ/L
  TOTAL BILIRUBIN: 0.2 mg/dL
  TOTAL PROTEIN: 6 G/DL
  URIC ACID: 0.97 mg/dL
[5]
  ABSOLUTE BASOPHIL: 0 CELLS/uL
  ABSOLUTE EOSINOPHIL: 235.33 CELLS/uL
  ABSOLUTE LYMPHOCYTE: 15696 CELLS/uL
  ABSOLUTE SEGMENTED NEUTROPHIL: 4063 CELLS/uL
  BASOPHIL: 0%
  ERYTHROCYTE COUNT: 5.59 x10E6/uL
  HEMATOCRIT: 34.73%
  HEMOGLOBIN: 13.17 G/DL
  LEUKOCYTE COUNT: 20.17 x10E3/uL
  LYMPHOCYTE: 77%
  MEAN CORPUSCULAR HEMOGLOBIN: 23.57 pg
  MEAN CORPUSCULAR HEMOGLOBIN CONCENTRATION: 37.9 G/DL
  MONOCYTE: 1%
  NEUTROPHIL: 20.67%
  NUCLEATED RED BLOOD CELLS: 0 /100WBC
  PLATELET COUNT: 1455 x10E3/uL
[6]
  ALANINE AMINOTRANSFERASE: 47.67 u/L
  ALBUMIN: 3.9 G/DL
  ALKALINE PHOSPHATASE: 334.67 u/L
  ASPARTATE AMINOTRANSFERASE: 110.33 u/L
  BLOOD UREA NITROGEN: 19 mg/dL
  CARBON DIOXIDE: 16 mmol/L
  CHLORIDE: 111.67 MEQ/L
  CHOLESTEROL: 47.67 mg/dL
  CREATINE PHOSPHOKINASE: 488.33 u/L
  CREATININE: 0.18 mg/dL
  LACTATE DEHYDROGENASE: 467.33 u/L
  LIPASE: 8.33 u/L
  PHOSPHORUS: 12.73 mg/dL
  POTASSIUM: 7.45 MEQ/L
  TOTAL BILIRUBIN: 0.23 mg/dL
  TOTAL PROTEIN: 6.1 G/DL
  URIC ACID: 3.1 mg/dL
